Measurements published in article PMC11878344 (Angewandte Chemie (International Ed. in English), 2025).

Assays:
[1] = tested on: MAGL; set-up: method as in PMID 35089028, PMID 34764251, PMID 34328319, PMID 29498843; conditions: known MAGL ligands of Figure 1; cited from earlier work
[2] = tested on: primary hippocampal neurons; test: Confocal imaging of live primary hippocampal neuron cultures; type: cell-based, mouse; conditions: inhibitor 10 μM, 2 h before labeling; p <0.01
Procedure: MAGL plays a vital role in neuronal inflammation[24, 66, 67] and the integrity of the blood–brain barrier.[68, 69] Therefore, we investigated the imaging capability of the probes in live dissociated primary hippocampal neuron cultures (Figure 6 C) as a prime model system in CNS research, particularly in the context of its role in shaping neurotransmitter release and synaptic plasticity properties.[70] Confocal microscopic imaging of the live cultures, at day 14–21 in vitro, was performed on cells treated with probe 9 (1 μM) and the particularly bright silicon‐rhodamine (SiR) probes 10 and 12 (0.5 μM) at 37 °C for 15 min, all of them producing a strong fluorescent signal. […] We observed an accumulation of the fluorescent signal in neuronal varicosities with a distribution that is reminiscent of that of synapses, indicating the localization of MAGL.
Hippocampal Neurons Staining
Preparation of primary neuron cultures. For neuron culture, glass coverslips (19 mm, #1.5
Epredia Deckgläser, CB00190RAC20MNZ0) were coated with PLL (Sigma-Aldrich, P4707; 1:12
dilution) in phosphate-buffered saline (PBS) for 2h at 37 °C. Hippocampal neurons were then […]
microscope for a maximum of 30 min. Images were then analyzed using FIJI. […]
analysis. The protein was analyzed using a Waters H-class instrument equipped with a quaternary […]

[3] = tested on: HT-29 cells; test: Confocal live cell imaging of HT-29 cells; type: cell-based; conditions: inhibitor 10 μM; probe 9 0.15 μM
Description: The enzymatic activity of MAGL plays a critical role in cancer lipid metabolism and is overexpressed in several particularly aggressive cancer cell lines.[56] Therefore, the expression levels of MAGL are considered a prognostic biomarker for the degree of cancer tumor differentiation and progression.[57] Here the colon cancer HT‐29 cell line is one of the prototypical systems regarding the impact of MAGL in proliferating and invasive cancer.[45, 58, 59] We studied the ability of probes 8–12 to detect MAGL by confocal imaging microscopy (Figure 6 A). Consistent staining of MAGL could be achieved with all optimized probes 8–12 carrying NBD, BODIPY, and SiR, respectively, providing a bright and stable fluorescent signal in live cancer cells. […]
For ABPP experiments, cell lysates containing equal amounts of protein were incubated with the appropriate concentration of activity-based probe for 30 min at room temperature. […] Samples were then separated by SDS-PAGE and bands were detected ChemiDoc Imager (Bio-Rad Laboratories). […] Gels were imaged and protein bands were quantified using Image Lab software (Bio-Rad Laboratories).
Fluorescence confocal microscopy. […]
Confocal live cell image acquisition. […] The probe fluorescence was monitored by kinetic measurements of 10 min with a break for probe administration. The fluorescence of one image per sample was captured at each time point. […]

SMILES: O=C(OC(CO)C(F)(F)F)N1CC2C(C1)C2c1ccn(-c2ccc(F)cc2)n1 (stereo not drawn) [PF-06795071]
- IC50 [1]: 3 nM
- Effect of pre-incubation on MAGL probe labeling [2]: strong decrease in mean fluorescent intensity
- Effect of pre-incubation on probe 9 fluorescent signal [3]: completely suppressed the fluorescent signal
